{"source": "PubChem BioAssay (NCI)", "assay_in_all_cases": "growth of human tumour cells (NCI), 384-well format", "key": {"NCI-H322M lung": {"system": "NCI-H322M lung"}, "NCI-H460 NSCLC": {"system": "NCI-H460 NSCLC"}, "NCI-H522 lung": {"system": "NCI-H522 lung"}, "NCI/ADR-RES ovarian": {"system": "NCI/ADR-RES ovarian"}, "OVCAR-3 ovarian": {"system": "OVCAR-3 ovarian"}, "OVCAR-4 ovarian": {"system": "OVCAR-4 ovarian"}, "OVCAR-5 ovarian": {"system": "OVCAR-5 ovarian"}, "OVCAR-8 ovarian": {"system": "OVCAR-8 ovarian"}, "PC-3 prostate": {"system": "PC-3 prostate"}, "RPMI-8226 leukemia": {"system": "RPMI-8226 leukemia"}, "RXF 393 renal": {"system": "RXF 393 renal"}, "SF-268 CNS": {"system": "SF-268 CNS"}, "SF-295 CNS": {"system": "SF-295 CNS"}, "SF-539 CNS": {"system": "SF-539 CNS"}, "SK-MEL-2 melanoma": {"system": "SK-MEL-2 melanoma"}, "SK-MEL-28 melanoma": {"system": "SK-MEL-28 melanoma"}, "SK-MEL-5 melanoma": {"system": "SK-MEL-5 melanoma"}, "SK-OV-3 ovarian": {"system": "SK-OV-3 ovarian"}, "SN12C renal": {"system": "SN12C renal"}, "SNB-19 CNS": {"system": "SNB-19 CNS"}, "SNB-75 CNS": {"system": "SNB-75 CNS"}, "SR leukemia": {"system": "SR leukemia"}, "SW-620 colon": {"system": "SW-620 colon"}, "T-47D breast": {"system": "T-47D breast"}, "TK-10 renal": {"system": "TK-10 renal"}, "U251 glioblastoma": {"system": "U251 glioblastoma"}, "UACC-257 melanoma": {"system": "UACC-257 melanoma"}, "UACC-62 melanoma": {"system": "UACC-62 melanoma"}}, "note": "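GI50 marks 50% less growth. TGI: total growth inhibition.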"}
{"smiles": "O=c1ccn(C2OC(CO)C(O)C2F)c(=O)[nH]1", "note": "(stereo unspecified)", "values": [{"measurement": "GI50", "setting": "NCI-H322M lung", "result": "> 100", "unit": "µM"}, {"measurement": "TGI", "setting": "NCI-H322M lung", "result": "> 100", "unit": "µM"}, {"measurement": "GI50", "setting": "NCI-H460 NSCLC", "result": "> 100", "unit": "µM"}, {"measurement": "TGI", "setting": "NCI-H460 NSCLC", "result": "> 100", "unit": "µM"}, {"measurement": "GI50", "setting": "NCI-H522 lung", "result": "> 100", "unit": "µM"}, {"measurement": "TGI", "setting": "NCI-H522 lung", "result": "> 100", "unit": "µM"}, {"measurement": "GI50", "setting": "NCI/ADR-RES ovarian", "result": "> 100", "unit": "µM"}, {"measurement": "TGI", "setting": "NCI/ADR-RES ovarian", "result": "> 100", "unit": "µM"}, {"measurement": "GI50", "setting": "OVCAR-3 ovarian", "result": "> 100", "unit": "µM"}, {"measurement": "TGI", "setting": "OVCAR-3 ovarian", "result": "> 100", "unit": "µM"}, {"measurement": "GI50", "setting": "OVCAR-4 ovarian", "result": "> 100", "unit": "µM"}, {"measurement": "TGI", "setting": "OVCAR-4 ovarian", "result": "> 100", "unit": "µM"}, {"measurement": "GI50", "setting": "OVCAR-5 ovarian", "result": "> 100", "unit": "µM"}, {"measurement": "TGI", "setting": "OVCAR-5 ovarian", "result": "> 100", "unit": "µM"}, {"measurement": "GI50", "setting": "OVCAR-8 ovarian", "result": "> 100", "unit": "µM"}, {"measurement": "TGI", "setting": "OVCAR-8 ovarian", "result": "> 100", "unit": "µM"}, {"measurement": "GI50", "setting": "PC-3 prostate", "result": "> 100", "unit": "µM"}, {"measurement": "TGI", "setting": "PC-3 prostate", "result": "> 100", "unit": "µM"}, {"measurement": "GI50", "setting": "RPMI-8226 leukemia", "result": "> 100", "unit": "µM"}, {"measurement": "TGI", "setting": "RPMI-8226 leukemia", "result": "> 100", "unit": "µM"}, {"measurement": "GI50", "setting": "RXF 393 renal", "result": "> 100", "unit": "µM"}, {"measurement": "TGI", "setting": "RXF 393 renal", "result": "> 100", "unit": "µM"}, {"measurement": "GI50", "setting": "SF-268 CNS", "result": "> 100", "unit": "µM"}, {"measurement": "TGI", "setting": "SF-268 CNS", "result": "> 100", "unit": "µM"}, {"measurement": "GI50", "setting": "SF-295 CNS", "result": "> 100", "unit": "µM"}, {"measurement": "TGI", "setting": "SF-295 CNS", "result": "> 100", "unit": "µM"}, {"measurement": "GI50", "setting": "SF-539 CNS", "result": "> 100", "unit": "µM"}, {"measurement": "TGI", "setting": "SF-539 CNS", "result": "> 100", "unit": "µM"}, {"measurement": "GI50", "setting": "SK-MEL-2 melanoma", "result": "> 100", "unit": "µM"}, {"measurement": "TGI", "setting": "SK-MEL-2 melanoma", "result": "> 100", "unit": "µM"}, {"measurement": "GI50", "setting": "SK-MEL-28 melanoma", "result": "> 100", "unit": "µM"}, {"measurement": "TGI", "setting": "SK-MEL-28 melanoma", "result": "> 100", "unit": "µM"}, {"measurement": "GI50", "setting": "SK-MEL-5 melanoma", "result": "> 100", "unit": "µM"}, {"measurement": "TGI", "setting": "SK-MEL-5 melanoma", "result": "> 100", "unit": "µM"}, {"measurement": "GI50", "setting": "SK-OV-3 ovarian", "result": "> 100", "unit": "µM"}, {"measurement": "TGI", "setting": "SK-OV-3 ovarian", "result": "> 100", "unit": "µM"}, {"measurement": "GI50", "setting": "SN12C renal", "result": "> 100", "unit": "µM"}, {"measurement": "TGI", "setting": "SN12C renal", "result": "> 100", "unit": "µM"}, {"measurement": "GI50", "setting": "SNB-19 CNS", "result": "> 100", "unit": "µM"}, {"measurement": "TGI", "setting": "SNB-19 CNS", "result": "> 100", "unit": "µM"}, {"measurement": "GI50", "setting": "SNB-75 CNS", "result": "> 100", "unit": "µM"}, {"measurement": "TGI", "setting": "SNB-75 CNS", "result": "> 100", "unit": "µM"}, {"measurement": "GI50", "setting": "SR leukemia", "result": "> 100", "unit": "µM"}, {"measurement": "TGI", "setting": "SR leukemia", "result": "> 100", "unit": "µM"}, {"measurement": "GI50", "setting": "SW-620 colon", "result": "> 100", "unit": "µM"}, {"measurement": "TGI", "setting": "SW-620 colon", "result": "> 100", "unit": "µM"}, {"measurement": "GI50", "setting": "T-47D breast", "result": "> 100", "unit": "µM"}, {"measurement": "TGI", "setting": "T-47D breast", "result": "> 100", "unit": "µM"}, {"measurement": "GI50", "setting": "TK-10 renal", "result": "> 100", "unit": "µM"}, {"measurement": "TGI", "setting": "TK-10 renal", "result": "> 100", "unit": "µM"}, {"measurement": "GI50", "setting": "U251 glioblastoma", "result": "> 100", "unit": "µM"}, {"measurement": "TGI", "setting": "U251 glioblastoma", "result": "> 100", "unit": "µM"}, {"measurement": "GI50", "setting": "UACC-257 melanoma", "result": "> 100", "unit": "µM"}, {"measurement": "TGI", "setting": "UACC-257 melanoma", "result": "> 100", "unit": "µM"}, {"measurement": "GI50", "setting": "UACC-62 melanoma", "result": "> 100", "unit": "µM"}, {"measurement": "TGI", "setting": "UACC-62 melanoma", "result": "> 100", "unit": "µM"}]}
